In US10188636B2 (Cipla (UK) Limited, priority 2015, dated 2019):

Experiments:
GFAP = GFAP immunohistochemistry in icv streptozotocin-induced Alzheimer's disease model; assay type: in vivo; settings: icv-STZ mice, oral once daily day 0 to day 14; betahistine 30 and 100 mg/kg, donepezil 0.5 mg/kg; compared with Vehicle group; FIG. 3
Method: (§1) Seven-week-old male C57BL/6 mice were obtained from Japan SLC, (Japan). The animals were maintained in a SPF facility under controlled conditions of temperature (23±2° C.), humidity (45±10%), lighting (12-hour artificial light and dark cycles; light from 8:00 to 20:00) and air exchange. On day 0 and day 2, 60 mice were anesthetized with pentobarbital sodium (Kyoritsu Seiyalu, Japan) and intracerebroventricularly (icy) administered two doses of streptozotocin (STZ, Sigma-Aldrich, USA) in saline at a dose of 3 mg/kg. The icv-STZ-induced Alzheimer's disease model mice were divided into 6 groups of 10 mice based on their body weight on the day before the start of the treatment.

[1] = test system: primary rat mixed cortical cultures; experiment: Aβ1-42-induced cell death (LDH release) in primary mixed cortical cultures; assay type: cell-based; settings: 37° C., 5% CO2, 72 hours, varied concentrations, FIG. 1
Method: Mixed cortical cultures are prepared from E18 Wistar rat embryos. The cortices are dissected out and tissue cut into small pieces. The cells are separated by 15-min incubation with DNase and papain. The cells are collected by centrifugation (1500 rpm, 5 min). […] After 3-4 h, the medium is changed to MEM (2 g/L glucose) supplemented with 2 mM glutamine, 10 μg/mL gentamicin, 5% HS-HI. After three days in vitro, medium containing MEM (Minimum Essential Media) (2 g/L glucose) supplemented with glutamine, gentamicin and 5% […] is changed to the cells. On day 6 in vitro, the unwanted cell division is inhibited by adding cytosine arabinoside (10 μM final concentration) for 24 h. The cultures refed with MEM (2 g/L glucose) supplemented with glutamine, gentamicin and 5% HS-HI before experiments. Aß1-42 Exposure The wells in good shape are chosen for experiment on day 10 in vitro. Test compounds are diluted in MEM (2 g/L glucose) supplemented with L-glutamine, gentamicin, and 5% HS-HI. […] The absorbance at 340 nm is measured immediately using a 3-min kinetic measurement protocol in Multiskan FC ELISA reader (Thermo, Finland). The change in absorbance/min is determined, which is directly proportional to the released LDH (=cell death).

APPSwDI/NOS2−/− mice = experiment: Contextual Fear Conditioning test in APPSwDI/NOS2−/− transgenic mice; assay type: in vivo; settings: once-a-day p.o., after two months of treatment, vs vehicle, FIG. 2
Method: -/- are double transgenic mice which display […] spatial memory, neuronal loss and neurofibrillary tangle like pathology. […] Treatment was continued for 2.5 months. After two months of treatment, starting at the age of 14.5 months the mice were subjected to Contextual Fear Conditioning (CFC) test. The test was performed as follows Training consisted of placing a mouse in a chamber, bright house light on, and allowing exploration for 2 min. Afterward an auditory cue (1700 Hz, 80 dB, conditioned stimulus (CS)) was presented for 15 s. A 2 s foot shock (1.5 mA; unconditioned stimulus (US)) was administered for the final 2 s of the CS. This procedure was repeated, and the mouse was removed from the chamber 30 s later. Twenty hours (±30 min) after the training, the mouse was returned to the same chamber in which the training occurred (memory for context), and freezing behavior was recorded by a computerized camera tracking system. The automated Freeze Frame system, which digitized the video signal at 4 Hz and compared movement of the mouse frame by frame, was used to score the amount of freezing. At the end of the 5 min context test, the mouse was returned to its home cage. Freezing scores for each subject were expressed as a percentage for memory for context.

histamine H3 receptors = histamine H3 receptors (Homo sapiens, UniProt Q9Y5N1); settings: general statement in description; cited from earlier work
MAP2 = MAP2 mRNA expression by quantitative RT-PCR in icv streptozotocin-induced Alzheimer's disease model; assay type: in vivo, mice; settings: for Expression levels of MAP2 gene (Mean ± SD): relative mRNA normalized to GAPDH, Vehicle 1.0 ± 0.4
Method: as §1
Expression levels of MAP2, a cytoskeletal modulator that has been implicated in the pathogenesis of Alzheimer's disease and a member of MAP2/tau family, was measured by quantitative RT-PCR. Total RNA was extracted from brain samples using RNAiso (Takara Bio, Japan) according to the manufacturer's instructions. One μg of RNA was reverse-transcribed using a reaction mixture containing 4.4 mM MgCl2 (F. Hoffmann-La Roche, Switzerland), 40 U RNase inhibitor (Toyobo, Japan), 0.5 mM dNTP (Promega, USA), 6.28 μM random hexamer (Promega), 5× first strand buffer (Promega), 10 mM dithiothreitol (Invitrogen, USA) and 200 U MMLV-RT (Invitrogen) in a final volume of 20 μL. The reaction was carried out for 1 hour at 37° C., followed by 5 minutes at 99° C. Real-time PCR was performed using real-time PCR DICE and SYBR premix Taq (Takara Bio). To calculate the relative mRNA expression level, the expression of each gene was normalized to that of reference gene GAPDH.

Sequence of histamine H3 receptors (Q9Y5N1 whole entry): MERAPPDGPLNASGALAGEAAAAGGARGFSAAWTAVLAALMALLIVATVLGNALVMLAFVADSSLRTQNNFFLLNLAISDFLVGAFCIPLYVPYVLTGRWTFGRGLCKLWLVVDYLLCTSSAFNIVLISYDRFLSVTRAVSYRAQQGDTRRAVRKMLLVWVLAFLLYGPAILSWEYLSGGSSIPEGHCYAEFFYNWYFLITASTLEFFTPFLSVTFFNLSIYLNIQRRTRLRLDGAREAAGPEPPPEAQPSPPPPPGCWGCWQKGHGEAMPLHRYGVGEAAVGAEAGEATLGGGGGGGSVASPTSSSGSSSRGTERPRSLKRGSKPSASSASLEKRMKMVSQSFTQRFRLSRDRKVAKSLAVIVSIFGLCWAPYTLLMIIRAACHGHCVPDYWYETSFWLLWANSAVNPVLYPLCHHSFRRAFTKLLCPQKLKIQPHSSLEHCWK

Row | Compound | GFAP-positive area (GFAP) | protective effect against Aβ 1-42-induced cell death [1] | Freezing score (memory for context) (APPSwDI/NOS2−/− mice) | affinity as an antagonist for histamine H3 receptors (histamine H3 receptors) | Expression levels of MAP2 gene (Mean ± SD) (MAP2; Betahistine high dose (100 mg/kg p.o. once daily day 0-14), n = 10) | Expression levels of MAP2 gene (Mean ± SD) (MAP2; Betahistine low dose (30 mg/kg p.o. once daily day 0-14), n = 10) | MAP2 mRNA expression (in words) (MAP2; icv-STZ mice brain, oral once daily day 0 to day 14, normalized to GAPDH) | Expression levels of MAP2 gene (Mean ± SD) (MAP2; Donepezil 0.5 mg/kg p.o. once daily day 0-14, n = 10)
1 | CNCCc1ccccn1 [Betahistine] | significant decreases | profound protective effect | improved freezing score | very strong affinity | 0.7 ± 0.2 | 0.7 ± 0.2 | significant down regulation | 
2 | COc1cc2c(cc1OC)C(=O)C(CC1CCN(Cc3ccccc3)CC1)C2 (stereo not drawn) [Donepezil, donepezil] | significant decreases |  |  |  |  |  |  | 0.7 ± 0.2
